Laboratory results published in patent US4468511A, “C-20- And C-23-Modified macrolide derivatives” (Eli Lilly and Company, priority 1983, dated 1984).
Values after ≈ are worked out from the molar mass of the structure shown.

Tests used:
Type in all cases: cell-based
[1] = system: Streptococcus Group D X66; experiment: MIC, standard agar-dilution assay
Experimental: (§1) Certain of the derivatives are active against some gram-negative bacteria, such as Pasteurella species. The MIC's in Table II were determined by standard agar-dilution assays. The MIC's in Table III were obtained using a conventional broth-dilution microtiter test.

Escherichia coli EC14 = experiment: MIC, standard agar-dilution assay; details: Escherichia coli, EC14
Experimental: as §1

Escherichia coli TEM = experiment: MIC, standard agar-dilution assay; details: Escherichia coli
Experimental: as §1

[2] = system: Klebsiella pneumoniae X26; experiment: MIC, standard agar-dilution assay; details: Klebsiella pneumoniae, X26
Experimental: as §1

[3] = system: Streptococcus pyogenes 9960; experiment: MIC, standard agar-dilution assay; details: 9960
Experimental: as §1

[4] = system: Staphylococcus aureus V41; experiment: MIC, standard agar-dilution assay; details: Staphylococcus aureus, V41
Experimental: as §1

[5] = system: Streptococcus pyogenes C203; experiment: MIC, standard agar-dilution assay; details: Streptococcus pyogenes, C203
Experimental: as §1

[6] = system: Streptococcus pneumoniae Park I; experiment: MIC, standard agar-dilution assay; details: Streptococcus pneumoniae
Experimental: as §1

[7] = system: Klebsiella pneumoniae KAE; experiment: MIC, standard agar-dilution assay; details: Klebsiella pneumoniae
Experimental: as §1

[8] = system: Staphylococcus aureus X1.1; experiment: MIC, standard agar-dilution assay; details: Staphylococcus aureus, X1.1
Experimental: as §1

[9] = system: Pasteurella hemolytica 41D; experiment: MIC, conventional broth-dilution microtiter test; details: Pasteurella, 41D
Experimental: as §1

[10] = system: Mycoplasma gallisepticum 41313; experiment: MIC, conventional broth-dilution microtiter test; details: Mycoplasmoides gallisepticum, 41313
Experimental: as §1

[11] = system: Pasteurella multocida 17E; experiment: MIC, conventional broth-dilution microtiter test; details: Pasteurella multocida, 17E
Experimental: as §1

[12] = system: Pasteurella multocida 60A; experiment: MIC, conventional broth-dilution microtiter test; details: Pasteurella multocida, 60A
Experimental: as §1

[13] = system: Pasteurella multocida 68C; experiment: MIC, conventional broth-dilution microtiter test; details: Pasteurella multocida, 68C
Experimental: as §1

Mycoplasma synoviae = experiment: MIC, conventional broth-dilution microtiter test; details: Mycoplasmopsis synoviae
Experimental: as §1

Streptococcus sp. 80 = experiment: MIC, conventional broth-dilution microtiter test; details: Streptococcus, SP.80
Experimental: as §1

[14] = system: Mycoplasma gallisepticum 34159; experiment: MIC, conventional broth-dilution microtiter test; details: Mycoplasmoides gallisepticum, 34159
Experimental: as §1

Staphylococcus aureus = experiment: MIC, conventional broth-dilution microtiter test
Experimental: as §1

[15] = system: Pasteurella hemolytica 23C; experiment: MIC, conventional broth-dilution microtiter test; details: Pasteurella, 23C
Experimental: as §1

[16] = system: Pasteurella multocida 40G; experiment: MIC, conventional broth-dilution microtiter test; details: Pasteurella multocida, 40G
Experimental: as §1

Mycoplasma gallisepticum = experiment: MIC, conventional broth-dilution microtiter test; details: Mycoplasmoides gallisepticum
Experimental: as §1

Mycoplasma hyorhinis = experiment: MIC, conventional broth-dilution microtiter test; details: Mycoplasma
Experimental: as §1

[17] = system: Pasteurella hemolytica 22C; experiment: MIC, conventional broth-dilution microtiter test; details: Pasteurella, 22C
Experimental: as §1

[18] = system: Pasteurella multocida 22A; experiment: MIC, conventional broth-dilution microtiter test; details: Pasteurella multocida, 22A
Experimental: as §1

[19] = system: Staphylococcus epidermidis EPI2; experiment: MIC, standard agar-dilution assay; details: Staphylococcus epidermidis, EPI2
Experimental: (§2) The MIC's in Table II were determined by standard agar-dilution assays. The MIC's in Table III were obtained using a conventional broth-dilution microtiter test.

[20] = system: Staphylococcus aureus X400; experiment: MIC, standard agar-dilution assay; details: Staphylococcus aureus, X400
Experimental: as §2

[21] = system: Staphylococcus epidermidis EPI1; experiment: microbe, parasite or virus in culture; details: Staphylococcus epidermidis, EPI1
Experimental: as §2

[22] = system: Staphylococcus aureus S13E; experiment: microbe, parasite or virus in culture
Experimental: as §2

Compound | MIC [1] [µg/mL] | MIC (Escherichia coli EC14) [µg/mL] | MIC (Escherichia coli TEM) [µg/mL] | MIC [2] [µg/mL] | MIC [3] [µg/mL] | MIC [4] [µg/mL] | MIC [5] [µg/mL] | MIC [6] [µg/mL] | MIC [7] [µg/mL] | MIC [8] [µg/mL] | MIC [9] [µg/mL] | MIC [10] [µg/mL] | MIC [11] [µg/mL] | MIC [12] [µg/mL] | MIC [13] [µg/mL] | MIC (Mycoplasma synoviae) [µg/mL] | MIC (Streptococcus sp. 80) [µg/mL] | MIC [14] [µg/mL] | MIC (Staphylococcus aureus) [µg/mL] | MIC [15] [µg/mL] | further results
CCC1OC(=O)CC(O)C(C)C(OC2OC(C)C(OC(C)=O)C(N(C)C)C2OC(C)=O)C(CCOC(=O)Cc2ccccc2)CC(C)C(=O)C=CC(C)=CC1COC(=O)Cc1ccccc1 (stereo not shown) [Compound 55, 2',4'-di-O-acetyl-20,23-di-O-phenylacetyl-20-dihydro-OMT] | 8 (≈ 8.69 µM) | > 128 | > 128 | > 128 | 8 (≈ 8.69 µM) | 8 (≈ 8.69 µM) | 2 (≈ 2.17 µM) | 1 (≈ 1.09 µM) | > 128 | 8 (≈ 8.69 µM) | > 50 | 0.78 (≈ 0.848 µM) | > 50 | 50 (≈ 54.3 µM) | > 50 | 6.25 (≈ 6.79 µM) | 1.56 (≈ 1.7 µM) | 3.12 (≈ 3.39 µM) | 0.78 (≈ 0.848 µM) | > 50 | MIC [16]: > 50 µg/mL; MIC (Mycoplasma gallisepticum): 0.097 µg/mL (≈ 0.105 µM); MIC (Mycoplasma hyorhinis): 50 µg/mL (≈ 54.3 µM); MIC [17]: > 50 µg/mL; MIC [18]: > 50 µg/mL; MIC [19]: 2 µg/mL (≈ 2.17 µM); MIC [20]: 8 µg/mL (≈ 8.69 µM); MIC [21]: 4 µg/mL (≈ 4.35 µM); MIC [22]: 4 µg/mL (≈ 4.35 µM)
CCC1OC(=O)CC(O)C(C)C(OC2OC(C)C(OC(C)=O)C(N(C)C)C2OC(C)=O)C(CCOC(=O)Cc2ccccc2)CC(C)C(=O)C=CC(C)=CC1CO (stereo not shown) [Compound 54, 2',4'-Di-O-acetyl-20-O-phenylacetyl-20-dihydro-OMT] | 4 (≈ 4.99 µM) | > 128 | 16 (≈ 20 µM) | 4 (≈ 4.99 µM) | 4 (≈ 4.99 µM) | 2 (≈ 2.49 µM) | 1 (≈ 1.25 µM) | 0.5 (≈ 0.623 µM) | > 128 | 2 (≈ 2.49 µM) | 12.5 (≈ 15.6 µM) | 0.78 (≈ 0.973 µM) | 12.5 (≈ 15.6 µM) | 6.25 (≈ 7.79 µM) | 6.25 (≈ 7.79 µM) | 25 (≈ 31.2 µM) | 3.12 (≈ 3.89 µM) | 3.12 (≈ 3.89 µM) | 0.78 (≈ 0.973 µM) | 12.5 (≈ 15.6 µM) | MIC [16]: 25 µg/mL (≈ 31.2 µM); MIC (Mycoplasma gallisepticum): 0.048 µg/mL (≈ 0.0599 µM); MIC (Mycoplasma hyorhinis): 50 µg/mL (≈ 62.3 µM); MIC [17]: 12.5 µg/mL (≈ 15.6 µM); MIC [18]: 25 µg/mL (≈ 31.2 µM); MIC [19]: 2 µg/mL (≈ 2.49 µM); MIC [20]: 2 µg/mL (≈ 2.49 µM); MIC [21]: 2 µg/mL (≈ 2.49 µM); MIC [22]: 2 µg/mL (≈ 2.49 µM)
